Measurements published in US7348350B2, “Pyrazolyl biphenyl carboxamides and the use thereof for controlling undesirable microorganisms” (Bayer CropScience AG, priority 2000, dated 2008).

Assays:
[1] = logP by HPLC on reversed-phase column (C 18), EEC Directive 79/831 Annex V.A8; assay type: physicochemical; details: reversed-phase HPLC column (C 18); acidic range, pH 2.3, 0.1% aqueous phosphoric acid and acetonitrile, 43° C. (marked a)
Method: The logP values given in the Preparation Examples and Tables above were determined in accordance with EEC Directive 79/831 Annex V.A8 by HPLC (High Performance Liquid Chromatography) on a reversed-phase column (C 18). Temperature: 43° C.
In the acidic range, the determination was carried out at pH 2.3 using the mobile phases 0.1% aqueous phosphoric acid and acetonitrile; linear gradient from 10% acetonitrile to 90% acetonitrile (marked ^a) in the Table).
In the neutral range, the determination was carried out at pH 7.5 using the mobile phases 0.01 molar aqueous phosphate buffer solution and acetonitrile; linear gradient from 10% acetonitrile to 90% acetonitrile (marked ^b) in the Table).

[2] = system: Venturia inaequalis; assay: Venturia test (apple)/protective; assay type: in vivo; details: 288 h, protective, application rate 100 g/ha, evaluation 12 days after inoculation, read-out: % efficacy
Method: To produce a suitable preparation of active compound, 1 part by weight of active compound is mixed with the stated amount of solvent and emulsifier, and the concentrate is diluted with water to the desired concentration.
To test for protective activity, young plants are sprayed with the preparation of active compound at the stated application rate. After the spray coating has dried on, the plants are inoculated with an aqueous conidia suspension of the apple scab pathogen Venturia inaequalis and then remain in an incubation cabin at approximately 20° C. and 100% relative atmospheric humidity for 1 day.
The plants are then placed in a greenhouse at approximately 21° C. and a relative atmospheric humidity of approximately 90%.
Evaluation is carried out 12 days after the inoculation. 0% means an efficacy which corresponds to that of the control, whereas an efficacy of 100% means that no infection is observed.

[3] = system: Sphaerotheca fuiginea; assay: Sphaerotheca test (cucumber)/protective; assay type: in vivo; details: Cucumis sativus, 240 h, protective, application rate 100 g/ha, evaluation 10 days after inoculation, read-out: % efficacy
Method: (§1) To produce a suitable preparation of active compound, 1 part by weight of active compound is mixed with the stated amounts of solvent and emulsifier, and the concentrate is diluted with water to the desired concentration.
(§2) To test for protective activity, young plants are sprayed with the preparation of active compound at the stated application rate. After the spray coating has dried on, the plants are inoculated with an aqueous spore suspension of Sphaerotheca fuiginea. The plants are then placed in a greenhouse at approximately 23° C. and a relative atmospheric humidity of approximately 70%.
(§3) Evaluation is carried out 10 days after the inoculation. 0% means an efficacy which corresponds to that of the control, whereas an efficacy of 100% means that no infection is observed.

[4] = system: Podosphaera leucotricha; assay: Podosphaera test (apple)/protective; assay type: in vivo; details: 240 h, protective, application rate 100 g/ha, evaluation 10 days after inoculation, read-out: % efficacy
Method: as §1
as §2, with “the apple mildew pathogen Podosphaera leucotricha.” for “Sphaerotheca fuiginea.”
as §3

[5] = system: Gloeophyllum trabeum, Coniophora puteana, Poria placenta, Lentinus tigrinus and Coriolus versicolor; assay: Inhibition test on giant colonies of Basidiomycetes; assay type: cell-based; details: 6 ppm active compound in malt extract peptone agar, 26° C.; read-out: % efficacy (percent inhibition of hyphal growth)
Method: Inhibition Test on Giant Colonies of Basidiomycetes Mycelium sections were removed from colonies of Gloeophyllum trabeum, Coniophora puteana, Poria placenta, Lentinus tigrinus and Coriolus versicolor and incubated on an agar medium containing malt extract peptone at 26° C. The inhibition of hyphal growth on active-compound-containing media was compared with the longitudinal growth on media without an addition of active compound and rated as percent inhibition.

[6] = system: Puccinia recondita; assay: Puccinia test (wheat)/protective; assay type: in vivo; details: protective, application rate 250 g/ha, evaluation 10 days after inoculation
Method: as §1
To test for protective activity, young plants are sprayed with the preparation of active compound at the stated application rate. After the spray coating has dried on, the plants are sprayed with a conidia suspension of Puccinia recondita. The plants remain in an incubation cabin at 20° C. and 100% relative atmospheric humidity for 48 hours.
The plants are then placed in a greenhouse at a temperature of approximately 20° C. and a relative atmospheric humidity of 80% to promote the development of rust pustules.
as §3

[7] = system: Alternaria solani; assay: Alternaria test (tomato)/protective; assay type: in vivo; details: protective, application rate 750 g/ha, evaluation 7 days after inoculation
Method: as §1
To test for protective activity, young tomato plants are sprayed with the preparation of active compound at the stated application rate. 1 day after the treatment, the plants are inoculated with a spore suspension of Alternaria solani and then remain at 100% rel. humidity and 20° C. for 24 h. The plants then remain at 96% rel. atmospheric humidity and a temperature of 20° C.
Evaluation is carried out 7 days after the inoculation. 0% means an efficacy which corresponds to that of the control, whereas an efficacy of 100% means that no infection is observed.

Structure (SMILES)	chromatographic logP [1]	pest or weed control at 100 g/ha [2]	pest or weed control at 100 g/ha [3]	pest or weed control at 100 g/ha [4]	Emax at 6 ppm [5]	% efficacy [6]	% efficacy [7]
CO/N=C/c1ccc(-c2ccc(F)cc2NC(=O)c2c(C)nn(C)c2F)cc1 [Example 8]	3.39	99%		98%			
Cc1nn(C)c(F)c1C(=O)Nc1ccccc1-c1ccc(/C=N/OC(C)C)cc1 [Example 23]		100%	95%	100%			
C/C(=N\OC(C)C)c1ccc(-c2ccccc2NC(=O)c2c(C)nn(C)c2F)cc1 [Example 20]		100%	77%	95%		100%	
CO/N=C/c1ccc(-c2cc(F)cc(F)c2NC(=O)c2c(C)nn(C)c2F)cc1 [Example 2, N-{3,5-difluoro-4′-[(methoxyimino)methyl]-1,1′-biphenyl-2-yl}-5-fluoro-1,3-dimethyl-1H-pyrazole-4-carboxamide]							90%
CO/N=C/c1ccc(-c2ccccc2NC(=O)c2c(C)nn(C)c2F)cc1 [Example 1, 5-fluoro-N-{4′-[(methoxyimino)methyl]-1,1′-biphenyl-2-yl}-1,3-dimethyl-1H-pyrazole-4-carboxamide]		100%	100%	100%	100%	100%	95%
CCO/N=C(\C)c1ccc(-c2ccccc2NC(=O)c2c(C)nn(C)c2F)cc1 [Example 22]		100%	95%	99%		100%	
CO/N=C(\C)c1ccc(-c2ccccc2NC(=O)c2c(C)nn(C)c2F)cc1 [Example 4, 5-fluoro-N-[4′-(N-methoxyethaneimidoyl)-1,1′-biphenyl-2-yl]-1,3-dimethyl-1H-pyrazole-4-carboxamide]					100%		90%
CO/N=C/c1cccc(-c2ccccc2NC(=O)c2c(C)nn(C)c2F)c1 [Example 5]							90%
CO/N=C(\C)c1cccc(-c2ccccc2NC(=O)c2c(C)nn(C)c2F)c1 [Example 7]	3.2						100%
CO/N=C/c1ccc(-c2ccccc2NC(=O)c2c(C)nn(C)c2F)cc1F [Example 3, 5-fluoro-N-{3′-fluoro-4′-[(methoxyimino)methyl]-1,1′-biphenyl-2-yl}-1,3-dimethyl-1H-pyrazole-4-carboxamide]					100%	100%	

Now from value to molecule, other results behind:

chromatographic logP [1]	Structure (SMILES)	pest or weed control at 100 g/ha [2]	pest or weed control at 100 g/ha [3]	pest or weed control at 100 g/ha [4]	Emax at 6 ppm [5]	% efficacy [6]	% efficacy [7]
3.3	CO/N=C/c1ccc(-c2ccccc2NC(=O)c2c(C)nn(C)c2F)cc1C [Example 47]	100%	100%	100%			
3.39	CO/N=C/c1ccc(-c2c(C)cccc2NC(=O)c2c(C)nn(C)c2F)cc1 [Example 29]	100%	83%	94%			
3.89	CO/N=C/c1ccc(-c2c(C)cccc2NC(=O)c2c(C)nn(C)c2F)cc1Cl [Example 50]	100%	100%	100%			
2.51	CO/N=C/c1ccc(-c2cccc(F)c2NC(=O)c2c(C)nn(C)c2F)cc1 [Example 9]				100%	100%	
3.05	CCO/N=C/c1ccc(-c2cc(F)cc(F)c2NC(=O)c2c(C)nn(C)c2F)cc1 [Example 11]	100%	93%	100%			
3.91	CCO/N=C/c1ccc(-c2ccccc2NC(=O)c2c(C)nn(C)c2F)c(C)c1 [Example 39]	100%	97%	100%			
3.4	CO/N=C/c1ccc(-c2ccccc2NC(=O)c2c(C)nn(C)c2F)c(C)c1 [Example 26]	100%	95%	100%		100%	
3.47	CO/N=C/c1ccc(-c2ccccc2NC(=O)c2c(C)nn(C)c2F)cc1Cl [Example 46]	100%	100%	100%			
3.01	CO/N=C/c1ccc(-c2cc(F)ccc2NC(=O)c2c(C)nn(C)c2F)cc1 [Example 37]	100%	77%	100%			
